According to ChEMBL document CHEMBL1135900, “Toward selective ERbeta agonists for central nervous system disorders: synthesis and characterization of aryl benzthiophenes” (J Med Chem, 2002):

Key:
Estrogen receptor [1] = molecular target: T1, Estrogen receptor (Homo sapiens, UniProt P03372)
T1 sequence (P03372 whole entry): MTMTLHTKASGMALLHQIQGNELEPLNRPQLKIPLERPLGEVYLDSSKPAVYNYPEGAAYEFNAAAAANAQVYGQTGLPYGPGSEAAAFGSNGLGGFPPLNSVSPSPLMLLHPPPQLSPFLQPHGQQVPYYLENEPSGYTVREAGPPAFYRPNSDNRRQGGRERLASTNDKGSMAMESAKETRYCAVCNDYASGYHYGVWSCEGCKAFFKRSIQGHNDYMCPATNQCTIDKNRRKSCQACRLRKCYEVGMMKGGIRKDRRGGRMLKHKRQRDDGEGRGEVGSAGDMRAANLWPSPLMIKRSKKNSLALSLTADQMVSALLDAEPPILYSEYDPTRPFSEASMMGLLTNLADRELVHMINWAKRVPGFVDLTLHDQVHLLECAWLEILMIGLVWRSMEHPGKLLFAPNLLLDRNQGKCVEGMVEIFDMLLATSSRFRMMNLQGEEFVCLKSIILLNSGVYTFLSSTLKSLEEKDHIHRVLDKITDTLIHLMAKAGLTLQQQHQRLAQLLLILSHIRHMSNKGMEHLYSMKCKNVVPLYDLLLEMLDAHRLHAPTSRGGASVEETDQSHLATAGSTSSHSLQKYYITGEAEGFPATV
Description: Inhibition of [3H]17-beta-estradiol binding to human recombinant Estrogen receptor alpha.

Estrogen receptor beta [2] = molecular target: T2, Estrogen receptor beta (Homo sapiens, UniProt Q92731)
Description: Inhibition of [3H]17-beta-estradiol binding to human recombinant Estrogen receptor beta.

Estrogen receptor [3] = molecular target: T1, Estrogen receptor; remark: listed apart in the source
Description: Activation of estrogen response element in HeLa cells stably transfected with human Estrogen receptor alpha.

Estrogen receptor beta [4] = molecular target: T2, Estrogen receptor beta; remark: listed apart in the source
Description: Activation of estrogen response element in HeLa cells stably transfected with human Estrogen receptor beta.

Estrogen receptor beta [5] = molecular target: T2, Estrogen receptor beta; test: Agonist activity in transcriptional activation assay in SH-SY5Y neuroblastoma cells expressing Estrogen receptor beta; type: functional, cell-based

T2 sequence (Q92731 whole entry): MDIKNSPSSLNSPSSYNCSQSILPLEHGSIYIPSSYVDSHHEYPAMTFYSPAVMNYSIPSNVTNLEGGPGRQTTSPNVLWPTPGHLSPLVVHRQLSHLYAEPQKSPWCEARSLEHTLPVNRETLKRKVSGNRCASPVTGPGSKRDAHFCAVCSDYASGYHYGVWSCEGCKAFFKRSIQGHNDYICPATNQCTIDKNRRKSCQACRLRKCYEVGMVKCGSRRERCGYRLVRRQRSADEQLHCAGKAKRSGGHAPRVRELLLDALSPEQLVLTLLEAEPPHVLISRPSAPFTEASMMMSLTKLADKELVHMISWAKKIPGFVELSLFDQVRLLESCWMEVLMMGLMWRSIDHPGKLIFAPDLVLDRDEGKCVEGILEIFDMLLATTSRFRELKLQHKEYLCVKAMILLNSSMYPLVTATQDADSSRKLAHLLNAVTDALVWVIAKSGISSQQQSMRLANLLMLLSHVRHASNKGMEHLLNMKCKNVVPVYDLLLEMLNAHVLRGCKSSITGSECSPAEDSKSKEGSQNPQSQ

EC50 (Estrogen receptor [1]) | EC50 (Estrogen receptor beta [2]) | EC50 (Estrogen receptor [3]) | EC50 (Estrogen receptor beta [4]) | EC50 (Estrogen receptor beta [5]) | SMILES
> 10000 nM | 7470 nM | 1000 nM | > 1000 nM |  | Oc1cc(O)c2cc(-c3ccc(O)c(F)c3)sc2c1
2210 nM | 740 nM | 269 nM | 245 nM |  | Oc1cccc(-c2cc3ccc(O)cc3s2)c1
7440 nM | 4710 nM | 191 nM | 257 nM |  | CCc1cc(-c2cc3ccc(O)cc3s2)ccc1O
3650 nM | 1830 nM | 148 nM | 302 nM |  | Cc1cc(-c2cc3ccc(O)cc3s2)ccc1O
1030 nM | 115 nM | 138 nM | 32 nM | 13 nM | Oc1ccc2cc(-c3ccc(O)c(F)c3)sc2c1
> 10000 nM | > 10000 nM | 178 nM | 174 nM | 120 nM | Cc1ccc(-c2cc3ccc(O)cc3s2)cc1
> 10000 nM | 3940 nM | 162 nM | 186 nM | 257 nM | CCCc1cc(-c2cc3ccc(O)cc3s2)ccc1O
4980 nM | 249 nM | 363 nM | 525 nM |  | Oc1ccc2cc(-c3ccc(O)c(O)c3)sc2c1
3710 nM | 4310 nM | 209 nM | 166 nM | 69 nM | Oc1ccc2cc(-c3ccccc3)sc2c1
 | 114 nM |  | 17 nM | 10 nM | Oc1ccc(-c2cc3ccc(O)cc3s2)cc1 [RALOXIFENE CORE]

SMILES | EC50 (Estrogen receptor [1]) | EC50 (Estrogen receptor beta [2]) | EC50 (Estrogen receptor [3]) | EC50 (Estrogen receptor beta [4]) | EC50 (Estrogen receptor beta [5])
Cc1cc(-c2cc3c(O)cc(O)cc3s2)ccc1O | > 10000 nM | > 10000 nM | > 1000 nM | > 1000 nM | 
Cc1cc(O)ccc1-c1cc2ccc(O)cc2s1 | 341 nM | 129 nM | 48 nM | 15 nM | 16 nM
CC(=O)c1cc(-c2cc3ccc(O)cc3s2)ccc1O | > 10000 nM | > 10000 nM | > 1000 nM | > 1000 nM | 
